Assay [1] deals with Tilletia caries. Nature of the assay: Treatment of oat seeds infested with Tilletia caries (spore germination). It is filed as in vivo.
For assay [2], the system named is Pythium ultimum. Nature of the assay: Threshold concentration test for use of the compounds against Pythium ultimum (infested soil, garden peas). The settings on record: for root evaluation (1-4): 3 weeks; for number of sound peas: 20 grains per dish, 3 weeks at 20-24° C. The arrangement: key to root evaluation (1-4): 4: white roots without fungous necrosis; 3: white roots, minor fungous necrosis; 2: brown roots, already more pronounced fungous necrosis; 1: heavy fungous necrosis, roots rotted. It is filed as in vivo. The procedure: Threshold concentration test for use of the compounds against Pythium ultimum
A 20% concentration of certain pulverulent active agents as listed below were mixed in uniform manner into a soil which had been heavily infested by Pythium ultimum. The thus treated soil was then placed into clay dishes of a capacity of 0.5 l earth. Without any intermediate time lapse 20 grain of garden peas (Pisum sativum L. convar. medullare Alef.) of the type "Wunder von Kelvedon" were then seeded into each of the clay dishes. After a cultivation period of three weeks at 20° to 24° C. in a hothouse the number of sound peas was determined and a root evaluation was carried out. The active agents amounts and results appear from the following table.
(§1) The root evaluation was carried out on a scale from 1 to 4 as follows: […]

Assay [3] has as its system Fusarium avenaceum. Nature of the assay: Threshold concentration test in case of Fusarium avenaceum (infested soil, garden peas). It is filed as in vivo. The settings on record: for number of sound peas: 20 grains per dish, 18 days at 20-24° C.; for root evaluation (1-4): 18 days. As for the experimental part:
Threshold concentration test in case of Fusarium avenaceum
A 20% pulverulent active agent of the type further identified in the table below was mixed in uniform manner with a soil which had been heavily infested with Fusarium avenaceum. The thus treated soil was then placed into clay dishes of a capacity of 0.5 l of earth. Each dish was seeded without any intervening time with 20 grains of garden peas (Pisum sativum L. convar. medullare Alef.) of the type "Wunder von Kelvedon". After a cultivation time of 18 days at 20° to 24° C. in a hot house the number of sound peas was determined and a root evaluation was carried out. The active agents employed, the amounts and results appear from the following table.
as §1

For assay [4], the system named is Helminthosporium gram. To be noted: about 5 weeks.
Protocol: Treatment of barley seeds infested with Helminthosporium gram
After emergence, the plants were subjected to illumination for 12 hours per day. After about 5 weeks the infested plants were counted and the total number of plants for each test were also counted. The active agents tested were used as pulverulent compositions.

Like-named read-outs stand apart in the source and are kept apart here.

The source of these data is patent publication US4281121A, “1,3,4-Thiadiazole-2-carboxylic acid derivatives, process for making the same and fungicidal and nematocidal compositions containing same” (Schering Aktiengesellschaft, priority 1978, dated 1981).

With `CCCC[S+]([O-])c1nnc(C#N)s1` (centres unmarked) [5-butylsulfinyl-1,3,4-thiadiazole-2-carbonitrile], the “% activity” value in assay [1] (50 g active agent per 100 kg) was 100%. The “root evaluation (1-4)” value in assay [2] (20 mg/l soil), in assay [2] (40 mg/l soil), in assay [2] (80 mg/l soil), in assay [3] (25 mg/l soil), in assay [3] (50 mg/l soil) and in assay [3] (100 mg/l soil) was 4 in each case. For the same compound, the “number of sound peas” value was 18 in assay [2] (20 mg/l soil); 18 in assay [2] (40 mg/l soil); 20 in assay [2] (80 mg/l soil); 19 in assay [3] (25 mg/l soil); 19 in assay [3] (50 mg/l soil); 19 in assay [3] (100 mg/l soil).

In the case of `CCCC[S+]([O-])c1nnc(C(=O)N(C)C)s1` (centres unmarked) [5-butylsulfinyl-1,3,4-thiadiazole-2-carboxylic acid-dimethylamide], in assay [4] (50 g active agent per 100 kg), the “% activity” value was determined as 100%.

Consider `CCCCS(=O)(=O)c1nnc(C(=O)N2CCC2)s1` [5-butylsulfonyl-1,3,4-thiadiazole-2-carboxylic acid-N,N-trimethylenamide], for which the “% activity” value in assay [1] (50 g active agent per 100 kg) amounted to 100%. For the same compound, the entries for the “number of sound peas” value in assay [3] (25 mg/l soil), in assay [3] (50 mg/l soil) and in assay [3] (100 mg/l soil) were 5, 13 and 18, respectively. For the same compound, the entries for the “root evaluation (1-4)” value in assay [3] (25 mg/l soil), in assay [3] (50 mg/l soil) and in assay [3] (100 mg/l soil) were 1, 2 and 3, respectively.

Turning to `CCS(=O)(=O)c1nnc(C(=O)N2CCC2)s1` [5-ethylsulfonyl-1,3,4-thiadiazole-2-carboxylic acid-N,N-trimethyleneamide], the “root evaluation (1-4)” value in assay [2] (20 mg/l soil), in assay [2] (40 mg/l soil) and in assay [2] (80 mg/l soil) was 4 throughout. In addition, the “number of sound peas” value in assay [2] (20 mg/l soil) amounted to 20; in assay [2] (40 mg/l soil), 19; in assay [2] (80 mg/l soil), 20.

Consider `CC(C)[S+]([O-])c1nnc(C#N)s1` (centres unmarked) [5-isopropylsulfinyl-1,3,4-thiadiazole-2-carbonitrile], for which the “% activity” value amounted to 87% in assay [1] (20 g active agent per 100 kg), 100% in assay [1] (50 g active agent per 100 kg) and 93% in assay [4] (50 g active agent per 100 kg). Also, the “root evaluation (1-4)” value in assay [2] (20 mg/l soil) worked out at 3; in assay [2] (40 mg/l soil) it was 4; in assay [2] (80 mg/l soil), 4; in assay [3] (25 mg/l soil), 4; in assay [3] (50 mg/l soil), 4; in assay [3] (100 mg/l soil), 4. Also, the “number of sound peas” value amounted to 17 in assay [2] (20 mg/l soil); 17 in assay [2] (40 mg/l soil); 19 in assay [2] (80 mg/l soil); 18 in assay [3] (25 mg/l soil); 19 in assay [3] (50 mg/l soil); 18 in assay [3] (100 mg/l soil).

In the case of `CC(C)[S+]([O-])c1nnc(C(N)=O)s1` (centres unmarked) [5-isopropylsulfinyl-1,3,4-thiadiazole-2-carboxamide], the “% activity” value in assay [1] (50 g active agent per 100 kg) and in assay [4] (50 g active agent per 100 kg) was 100% throughout.

Consider `CC(C)[S+]([O-])c1nnc(C(=O)NCC2CCCCC2)s1` (centres unmarked) [5-isopropylsulfinyl-1,3,4-thiadiazole-2-carboxylic acid-cyclohexylmethylamide], for which the “% activity” value in assay [1] (20 g active agent per 100 kg) was 99%; in assay [1] (50 g active agent per 100 kg) it was 100%.

With `C[S+]([O-])c1nnc(C#N)s1` (centres unmarked) [5-methylsulfinyl-1,3,4-thiadiazole-2-carbonitrile], the figures for the “% activity” value in assay [1] (20 g active agent per 100 kg), in assay [1] (50 g active agent per 100 kg) and in assay [4] (50 g active agent per 100 kg) were 100%, 100% and 94%, respectively. Besides, the “root evaluation (1-4)” value in assay [2] (20 mg/l soil), in assay [2] (40 mg/l soil), in assay [2] (80 mg/l soil), in assay [3] (25 mg/l soil), in assay [3] (50 mg/l soil) and in assay [3] (100 mg/l soil) was 4 each time. The “number of sound peas” value in assay [2] (20 mg/l soil) was 19; in assay [2] (40 mg/l soil), 20; in assay [2] (80 mg/l soil), 20; in assay [3] (25 mg/l soil), 20; in assay [3] (50 mg/l soil) it was 18; in assay [3] (100 mg/l soil), 19.

With `C[S+]([O-])c1nnc(C(N)=O)s1` (centres unmarked) [5-methylsulfinyl-1,3,4-thiadiazole-2-carboxamide], the “% activity” value in assay [1] (20 g active agent per 100 kg) was 98%; in assay [1] (50 g active agent per 100 kg), 100%; in assay [4] (50 g active agent per 100 kg), 100%.

In the case of `C[S+]([O-])c1nnc(C(=O)NCc2ccccc2Cl)s1` (centres unmarked) [5-methylsulfinyl-1,3,4-thiadiazole-2-carboxylic acid-(2-chlorobenzyleamide)], the “number of sound peas” value in assay [3] (25 mg/l soil) is reported as 7; in assay [3] (50 mg/l soil) it was 11; in assay [3] (100 mg/l soil), 18. For the same compound, the “root evaluation (1-4)” value is listed as 2 in assay [3] (25 mg/l soil), 3 in assay [3] (50 mg/l soil) and 4 in assay [3] (100 mg/l soil).

`COCCNC(=O)c1nnc(S(C)(=O)=O)s1` [5-methylsulfonyl-1,3,4-thiadiazole-2-carboxylic acid-(2-methoxyethyl)-amide]: the “% activity” value is recorded as 93% in assay [1] (20 g active agent per 100 kg), 100% in assay [1] (50 g active agent per 100 kg), 92% in assay [4] (20 g active agent per 100 kg) and 100% in assay [4] (50 g active agent per 100 kg).

With `C=CCNC(=O)c1nnc([S+]([O-])CCC)s1` (centres unmarked) [5-propylsulfinyl-1,3,4-thiadiazole-2-carboxylic acid-allylamide], the “% activity” value in assay [1] (20 g active agent per 100 kg) came out at 100%; in assay [1] (50 g active agent per 100 kg), 100%; in assay [4] (50 g active agent per 100 kg), 96%. For the same compound, the “root evaluation (1-4)” value in assay [2] (20 mg/l soil) is recorded as 2; in assay [2] (40 mg/l soil), 4; in assay [2] (80 mg/l soil) it was 4. For the same compound, the “number of sound peas” value in assay [2] (20 mg/l soil) turned out to be 15; in assay [2] (40 mg/l soil), 19; in assay [2] (80 mg/l soil), 19.

As for `CCC[S+]([O-])c1nnc(C(=O)NC(C)C)s1` (centres unmarked) [5-propylsulfinyl-1,3,4-thiadiazole-2-carboxylic acid-isopropylamide], the “% activity” value in assay [1] (20 g active agent per 100 kg), in assay [1] (50 g active agent per 100 kg) and in assay [4] (50 g active agent per 100 kg) was 100% each time. Also, the “number of sound peas” value in assay [3] (25 mg/l soil) was 9; in assay [3] (50 mg/l soil), 13; in assay [3] (100 mg/l soil), 16. The “root evaluation (1-4)” value in assay [3] (25 mg/l soil) amounted to 3; in assay [3] (50 mg/l soil) it was 4; in assay [3] (100 mg/l soil), 4.

Regarding `CCCS(=O)(=O)c1nnc(C(=O)NCCCCl)s1` [5-propylsulfonyl-1,3,4-thiadiazole-2-carboxylic acid-(3-chloropropyl)-amide], the “root evaluation (1-4)” value is 1 in assay [2] (20 mg/l soil), 3 in assay [2] (40 mg/l soil) and 4 in assay [2] (80 mg/l soil). The “number of sound peas” value came out at 10 in assay [2] (20 mg/l soil), 19 in assay [2] (40 mg/l soil) and 19 in assay [2] (80 mg/l soil).

In the case of `CCCCNC(=O)c1nnc(S(=O)(=O)CCC)s1` [5-propylsulfonyl-1,3,4-thiadiazole-2-carboxylic acid-butylamide], the figures for the “% activity” value in assay [1] (10 g active agent per 100 kg), in assay [1] (20 g active agent per 100 kg) and in assay [1] (50 g active agent per 100 kg) were 99.2%, 99.7% and 100%, respectively. The “number of sound peas” value in assay [3] (25 mg/l soil) is listed as 9; in assay [3] (50 mg/l soil), 16; in assay [3] (100 mg/l soil), 17. The “root evaluation (1-4)” value in assay [3] (25 mg/l soil) is on record as 1; in assay [3] (50 mg/l soil) it was 3; in assay [3] (100 mg/l soil), 4.

For `CCCS(=O)(=O)c1nnc(C(=O)NCC)s1` [5-propylsulfonyl-1,3,4-thiadiazole-2-carboxylic acid-ethylamide], the “% activity” value in assay [1] (10 g active agent per 100 kg) turned out to be 99.3%; in assay [1] (20 g active agent per 100 kg), 99.8%; in assay [1] (50 g active agent per 100 kg), 100%. Further, the “root evaluation (1-4)” value is recorded as 3 in assay [2] (20 mg/l soil), 4 in assay [2] (40 mg/l soil) and 4 in assay [2] (80 mg/l soil). The “number of sound peas” value in assay [2] (20 mg/l soil), in assay [2] (40 mg/l soil) and in assay [2] (80 mg/l soil) was 14 throughout.

On to `S=C([S-])NCCNC(=S)[S-].[Mn+2]` [Manganese ethylene-1,2-bis-dithiocarbamate, reference compound], for which the “root evaluation (1-4)” value in assay [2] (20 mg/l soil), in assay [2] (40 mg/l soil), in assay [2] (80 mg/l soil), in assay [3] (25 mg/l soil), in assay [3] (50 mg/l soil) and in assay [3] (100 mg/l soil) was 1 each time. For the same compound, the “number of sound peas” value stood at 1 in assay [2] (20 mg/l soil); 4 in assay [2] (40 mg/l soil); 11 in assay [2] (80 mg/l soil); 0 in assay [3] (25 mg/l soil); 0 in assay [3] (50 mg/l soil); 12 in assay [3] (100 mg/l soil).
